Drawing on ChEMBL document CHEMBL5649169 (ChemMedChem, 2018), this text covers ED50 and IC50 for two molecules.

Targets include Translin (Homo sapiens) (UniProt Q15631); Cullin-4B (Homo sapiens) (UniProt Q13620); Tektin-1 (Homo sapiens) (UniProt Q969V4); Macoilin (Homo sapiens) (UniProt Q8N5G2).
Test [1] addresses F-actin-capping protein subunit alpha-1 (Homo sapiens) (UniProt P52907).
Test [2] addresses EKC/KEOPS complex subunit TPRKB (Homo sapiens) (UniProt Q9Y3C4).
Test [3] deals with NADH dehydrogenase [ubiquinone] 1 alpha subcomplex subunit 13 (Homo sapiens) (UniProt Q9P0J0).
The target in the next test is Ephrin type-A receptor 2 (Homo sapiens, UniProt P29317). The test is described as follows: Inhibition of Nano Luc-fused full length C-terminal EPHA2 (unknown origin) expressed in HEK293T cells using NanoGlo as substrate incubated for 2 hrs in presence of tracer by NanoBRET assay. Type of test: cell-based.
In test [4] the target is Acyl-CoA dehydrogenase family member 11 (Homo sapiens) (UniProt Q709F0). Also: assay method not described here.
For test [5], the target named is Phosphopentomutase (Homo sapiens) (UniProt Q96G03). Also: assay method not described here.
Test [6] has as its target Hypoxia up-regulated protein 1 (Homo sapiens) (UniProt Q9Y4L1). Also: assay method not described here.
For test [7], the target named is Ras-related protein Rab-6A (Homo sapiens) (UniProt P20340). Also: assay method not described here.
Test [8] has as its target Tubulin beta-2B chain (Homo sapiens) (UniProt Q9BVA1). Also: assay method not described here.
Test [9] deals with Very-long-chain (3R)-3-hydroxyacyl-CoA dehydratase 3 (Homo sapiens) (UniProt Q9P035).
For test [10], the target named is Serine/arginine-rich splicing factor 2 (Homo sapiens) (UniProt Q01130). Also: assay method not described here.
Test [11] deals with Ubiquitin carboxyl-terminal hydrolase 9X (Homo sapiens) (UniProt Q93008).
Test [12] has as its target PAS domain-containing serine/threonine-protein kinase (Homo sapiens) (UniProt Q96RG2). Also: assay method not described here.
The target of test [13] is Electrogenic aspartate/glutamate antiporter SLC25A13, mitochondrial (Homo sapiens) (UniProt Q9UJS0). Also: assay method not described here.
For test [14], the target named is Serine/arginine-rich splicing factor 9 (Homo sapiens) (UniProt Q13242). Also: assay method not described here.
The target of test [15] is Cell growth-regulating nucleolar protein (Homo sapiens) (UniProt Q9NX58). Also: assay method not described here.
Test [16] addresses Malate dehydrogenase, cytoplasmic (Homo sapiens) (UniProt P40925).
The target of test [17] is Microfibrillar-associated protein 1 (Homo sapiens) (UniProt P55081). Also: assay method not described here.
In test [18] the target is Presenilin-associated rhomboid-like protein, mitochondrial (Homo sapiens) (UniProt Q9H300). Also: assay method not described here.
Test [19] addresses DnaJ homolog subfamily C member 13 (Homo sapiens) (UniProt O75165).
Test [20] has as its target Cytoplasmic FMR1-interacting protein 2 (Homo sapiens) (UniProt Q96F07). Also: assay method not described here.
The target in test [21] is Serine/threonine-protein kinase LMTK2 (Homo sapiens) (UniProt Q8IWU2). Also: assay method not described here.
Test [22] has as its target Eukaryotic translation initiation factor 2-alpha kinase 1 (Homo sapiens) (UniProt Q9BQI3). Also: assay method not described here.
Test [23] concerns the target Nuclear factor NF-kappa-B p105 subunit (Homo sapiens) (UniProt P19838). Also: assay method not described here.
For test [24], the target named is Signal recognition particle receptor subunit alpha (Homo sapiens) (UniProt P08240). Also: assay method not described here.
The target of test [25] is RNA polymerase-associated protein CTR9 homolog (Homo sapiens) (UniProt Q6PD62). Also: assay method not described here.
Test [26] concerns the target Hydroxyacyl-coenzyme A dehydrogenase, mitochondrial (Homo sapiens) (UniProt Q16836). Also: assay method not described here.
Test [27] addresses STE20-related kinase adapter protein alpha (Homo sapiens) (UniProt Q7RTN6).
The target of test [28] is DNA polymerase delta subunit 3 (Homo sapiens) (UniProt Q15054). Also: assay method not described here.
Test [29] deals with Histone H1.3 (Homo sapiens) (UniProt P16402).
Test [30] concerns the target Phosphatidate cytidylyltransferase 2 (Homo sapiens) (UniProt O95674). Also: assay method not described here.
The target in test [31] is Translation initiation factor eIF2B subunit epsilon (Homo sapiens) (UniProt Q13144). Also: assay method not described here.
In test [32] the target is Acetyl-CoA carboxylase 2 (Homo sapiens) (UniProt O00763). Also: assay method not described here.
Test [33] deals with Probable helicase with zinc finger domain (Homo sapiens) (UniProt P42694).
Test [34] deals with MAP/microtubule affinity-regulating kinase 4 (Homo sapiens) (UniProt Q96L34).
For test [35], the target named is Complement component 1 Q subcomponent-binding protein, mitochondrial (Homo sapiens) (UniProt Q07021). Also: assay method not described here.
The target of test [36] is Man(5)GlcNAc(2)-PP-dolichol translocation protein RFT1 (Homo sapiens) (UniProt Q96AA3). Also: assay method not described here.
In test [37] the target is Nuclear cap-binding protein subunit 2 (Homo sapiens) (UniProt P52298). Also: assay method not described here.
The target of test [38] is Complex I assembly factor ACAD9, mitochondrial (Homo sapiens) (UniProt Q9H845). Also: assay method not described here.
The target in test [39] is eIF5-mimic protein 1 (Homo sapiens) (UniProt Q9Y6E2). Also: assay method not described here.

Molecules are shown by their SMILES.
For ED50 in this document: assay method not described here.

Hypoxia up-regulated protein 1 (Homo sapiens), sequence (Q9Y4L1 whole entry): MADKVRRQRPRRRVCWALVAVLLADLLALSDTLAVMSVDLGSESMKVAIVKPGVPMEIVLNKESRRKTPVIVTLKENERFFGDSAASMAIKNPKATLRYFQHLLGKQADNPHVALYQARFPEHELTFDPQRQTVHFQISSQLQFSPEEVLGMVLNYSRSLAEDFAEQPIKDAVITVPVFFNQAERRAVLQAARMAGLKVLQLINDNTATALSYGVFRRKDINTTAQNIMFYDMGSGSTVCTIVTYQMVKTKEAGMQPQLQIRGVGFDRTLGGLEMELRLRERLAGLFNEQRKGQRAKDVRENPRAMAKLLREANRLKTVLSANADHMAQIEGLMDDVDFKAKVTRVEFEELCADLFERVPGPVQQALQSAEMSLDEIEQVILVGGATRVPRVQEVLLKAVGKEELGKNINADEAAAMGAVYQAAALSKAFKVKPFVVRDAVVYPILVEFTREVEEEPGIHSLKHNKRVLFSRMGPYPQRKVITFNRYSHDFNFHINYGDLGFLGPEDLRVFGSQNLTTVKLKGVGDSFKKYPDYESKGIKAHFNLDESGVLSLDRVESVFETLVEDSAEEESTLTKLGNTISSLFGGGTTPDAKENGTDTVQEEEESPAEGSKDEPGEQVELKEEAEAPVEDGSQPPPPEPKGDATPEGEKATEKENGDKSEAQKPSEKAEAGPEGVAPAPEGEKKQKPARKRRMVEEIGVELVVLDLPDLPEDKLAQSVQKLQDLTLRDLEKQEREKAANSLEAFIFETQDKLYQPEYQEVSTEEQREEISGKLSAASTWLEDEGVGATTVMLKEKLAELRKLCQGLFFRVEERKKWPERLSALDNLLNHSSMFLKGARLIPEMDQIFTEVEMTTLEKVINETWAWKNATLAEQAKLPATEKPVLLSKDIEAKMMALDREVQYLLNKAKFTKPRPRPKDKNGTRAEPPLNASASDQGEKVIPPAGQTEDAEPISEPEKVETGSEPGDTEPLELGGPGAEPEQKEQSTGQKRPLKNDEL
Cell growth-regulating nucleolar protein (Homo sapiens), sequence (Q9NX58 whole entry): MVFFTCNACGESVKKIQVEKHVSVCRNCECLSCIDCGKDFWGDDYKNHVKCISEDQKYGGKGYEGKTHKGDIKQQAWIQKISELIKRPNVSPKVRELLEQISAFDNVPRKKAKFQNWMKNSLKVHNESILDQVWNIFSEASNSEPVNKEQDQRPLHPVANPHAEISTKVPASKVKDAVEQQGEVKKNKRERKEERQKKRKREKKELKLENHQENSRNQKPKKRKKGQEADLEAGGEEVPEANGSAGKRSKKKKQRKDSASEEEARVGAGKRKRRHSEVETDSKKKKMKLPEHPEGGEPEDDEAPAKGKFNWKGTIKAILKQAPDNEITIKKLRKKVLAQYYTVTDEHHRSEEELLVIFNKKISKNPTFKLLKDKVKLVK
Very-long-chain (3R)-3-hydroxyacyl-CoA dehydratase 3 (Homo sapiens), sequence (Q9P035 whole entry): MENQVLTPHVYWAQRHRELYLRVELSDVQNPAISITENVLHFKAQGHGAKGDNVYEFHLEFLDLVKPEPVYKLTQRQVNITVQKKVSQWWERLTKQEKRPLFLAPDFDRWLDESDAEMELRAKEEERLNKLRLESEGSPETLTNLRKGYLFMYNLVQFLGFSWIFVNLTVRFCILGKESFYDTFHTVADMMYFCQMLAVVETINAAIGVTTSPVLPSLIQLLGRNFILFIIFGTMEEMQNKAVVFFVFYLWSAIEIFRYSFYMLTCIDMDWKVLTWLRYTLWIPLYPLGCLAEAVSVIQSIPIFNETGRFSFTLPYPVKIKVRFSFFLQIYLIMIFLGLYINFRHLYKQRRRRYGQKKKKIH
Tubulin beta-2B chain (Homo sapiens), sequence (Q9BVA1 whole entry): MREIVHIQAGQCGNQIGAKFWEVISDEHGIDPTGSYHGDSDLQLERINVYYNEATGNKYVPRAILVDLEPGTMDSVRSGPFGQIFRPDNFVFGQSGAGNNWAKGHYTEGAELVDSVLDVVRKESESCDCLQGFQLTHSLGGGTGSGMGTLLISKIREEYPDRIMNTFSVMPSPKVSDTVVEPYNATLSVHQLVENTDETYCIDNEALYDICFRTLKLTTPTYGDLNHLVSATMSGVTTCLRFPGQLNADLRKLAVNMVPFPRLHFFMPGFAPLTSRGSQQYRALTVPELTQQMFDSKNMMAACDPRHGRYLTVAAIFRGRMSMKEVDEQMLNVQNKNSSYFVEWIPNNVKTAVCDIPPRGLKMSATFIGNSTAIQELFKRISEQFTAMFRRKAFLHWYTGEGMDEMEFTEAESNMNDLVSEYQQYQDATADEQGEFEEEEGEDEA
Ubiquitin carboxyl-terminal hydrolase 9X (Homo sapiens), sequence (Q93008 whole entry, the tested form may be a part): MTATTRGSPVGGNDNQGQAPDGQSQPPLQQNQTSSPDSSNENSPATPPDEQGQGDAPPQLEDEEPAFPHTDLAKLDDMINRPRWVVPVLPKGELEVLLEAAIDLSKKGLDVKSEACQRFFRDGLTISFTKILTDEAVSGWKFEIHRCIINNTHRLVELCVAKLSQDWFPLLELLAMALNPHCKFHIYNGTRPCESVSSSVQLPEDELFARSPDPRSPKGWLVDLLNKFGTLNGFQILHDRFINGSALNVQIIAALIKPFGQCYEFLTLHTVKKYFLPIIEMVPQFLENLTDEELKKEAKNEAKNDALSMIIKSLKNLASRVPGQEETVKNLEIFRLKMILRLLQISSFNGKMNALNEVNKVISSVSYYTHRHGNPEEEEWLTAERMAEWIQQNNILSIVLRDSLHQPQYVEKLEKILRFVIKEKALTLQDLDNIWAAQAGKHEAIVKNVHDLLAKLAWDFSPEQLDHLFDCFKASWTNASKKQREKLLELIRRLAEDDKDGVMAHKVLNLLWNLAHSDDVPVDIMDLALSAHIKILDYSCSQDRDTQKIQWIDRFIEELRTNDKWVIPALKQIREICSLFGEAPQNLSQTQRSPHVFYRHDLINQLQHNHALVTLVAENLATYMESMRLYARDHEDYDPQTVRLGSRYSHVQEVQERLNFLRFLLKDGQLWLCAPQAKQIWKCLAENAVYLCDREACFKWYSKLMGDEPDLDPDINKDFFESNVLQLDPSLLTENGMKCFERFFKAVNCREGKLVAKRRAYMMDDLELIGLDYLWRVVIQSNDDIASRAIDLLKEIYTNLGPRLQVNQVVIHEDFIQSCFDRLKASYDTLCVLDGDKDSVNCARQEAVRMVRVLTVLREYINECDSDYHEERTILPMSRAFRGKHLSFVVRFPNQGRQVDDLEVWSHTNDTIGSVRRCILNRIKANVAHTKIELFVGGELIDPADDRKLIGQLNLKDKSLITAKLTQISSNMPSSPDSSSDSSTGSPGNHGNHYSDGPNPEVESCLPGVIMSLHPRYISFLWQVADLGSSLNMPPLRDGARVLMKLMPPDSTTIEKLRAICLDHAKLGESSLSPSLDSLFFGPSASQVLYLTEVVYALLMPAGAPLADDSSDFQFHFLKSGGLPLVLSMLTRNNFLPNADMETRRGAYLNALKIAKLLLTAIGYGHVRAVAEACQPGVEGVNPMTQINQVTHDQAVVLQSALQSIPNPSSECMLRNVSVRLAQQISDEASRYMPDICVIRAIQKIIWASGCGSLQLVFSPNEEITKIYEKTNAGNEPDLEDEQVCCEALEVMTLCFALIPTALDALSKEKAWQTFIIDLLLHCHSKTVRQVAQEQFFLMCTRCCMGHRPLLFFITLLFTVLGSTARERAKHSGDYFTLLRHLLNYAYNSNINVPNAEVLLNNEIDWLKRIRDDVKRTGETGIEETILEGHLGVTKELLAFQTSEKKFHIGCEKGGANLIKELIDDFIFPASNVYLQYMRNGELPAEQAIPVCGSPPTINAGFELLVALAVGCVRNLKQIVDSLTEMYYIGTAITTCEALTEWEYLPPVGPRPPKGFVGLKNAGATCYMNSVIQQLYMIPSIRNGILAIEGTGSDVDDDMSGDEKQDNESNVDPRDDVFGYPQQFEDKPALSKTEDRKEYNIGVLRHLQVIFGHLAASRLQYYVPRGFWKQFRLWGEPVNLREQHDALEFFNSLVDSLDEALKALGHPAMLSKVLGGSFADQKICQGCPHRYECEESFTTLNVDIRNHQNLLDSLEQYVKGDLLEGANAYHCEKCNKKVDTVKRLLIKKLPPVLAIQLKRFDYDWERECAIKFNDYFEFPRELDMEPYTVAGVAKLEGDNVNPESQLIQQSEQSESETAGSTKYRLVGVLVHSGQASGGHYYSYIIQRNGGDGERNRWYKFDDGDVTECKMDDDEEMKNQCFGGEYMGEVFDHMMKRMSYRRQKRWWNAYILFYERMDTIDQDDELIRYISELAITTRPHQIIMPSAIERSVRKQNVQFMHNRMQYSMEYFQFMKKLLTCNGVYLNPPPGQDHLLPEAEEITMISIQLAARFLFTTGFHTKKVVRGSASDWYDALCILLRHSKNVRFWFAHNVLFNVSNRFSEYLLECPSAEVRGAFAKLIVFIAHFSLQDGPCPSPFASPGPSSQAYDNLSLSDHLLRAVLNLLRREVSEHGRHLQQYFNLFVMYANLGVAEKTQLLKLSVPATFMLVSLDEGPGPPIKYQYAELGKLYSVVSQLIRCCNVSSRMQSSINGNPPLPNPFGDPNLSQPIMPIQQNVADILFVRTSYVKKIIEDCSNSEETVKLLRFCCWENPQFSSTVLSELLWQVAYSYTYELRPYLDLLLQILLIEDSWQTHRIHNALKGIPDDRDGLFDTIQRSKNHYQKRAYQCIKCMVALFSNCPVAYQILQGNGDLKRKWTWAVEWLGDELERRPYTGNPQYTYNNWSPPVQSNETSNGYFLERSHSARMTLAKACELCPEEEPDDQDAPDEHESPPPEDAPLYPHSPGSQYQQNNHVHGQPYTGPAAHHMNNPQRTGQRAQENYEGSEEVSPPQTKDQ
Nuclear cap-binding protein subunit 2 (Homo sapiens), sequence (P52298 whole entry): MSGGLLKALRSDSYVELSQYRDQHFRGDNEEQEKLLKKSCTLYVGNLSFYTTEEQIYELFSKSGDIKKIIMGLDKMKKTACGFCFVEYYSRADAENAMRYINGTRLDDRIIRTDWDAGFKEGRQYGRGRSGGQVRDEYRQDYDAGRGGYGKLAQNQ
NADH dehydrogenase [ubiquinone] 1 alpha subcomplex subunit 13 (Homo sapiens), sequence (Q9P0J0 whole entry, the tested form may be a part, one chain of several): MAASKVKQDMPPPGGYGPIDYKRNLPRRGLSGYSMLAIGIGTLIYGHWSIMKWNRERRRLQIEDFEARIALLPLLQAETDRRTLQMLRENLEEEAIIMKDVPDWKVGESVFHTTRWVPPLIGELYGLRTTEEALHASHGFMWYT

By IC50 is commonly meant the point on the concentration scale where inhibition reaches its midpoint. Regarding `Cc1ccc(C(=O)Nc2cccc(C(F)(F)F)c2)cc1Nc1nc(-c2cccnc2)nc2nn(C)cc12`, the ED50 at Translin (Homo sapiens) stood at 1.01 nM; in test [1], 1490 nM; in [2], 550 nM; in [3] it was 5.85 nM; in test [4] it was 137 nM; in [5], 149000 nM. Besides, the ED50 came to 52.4 nM in test [6]; 535 nM in [7]; 14 nM in [8]; 17.3 nM in test [9]; 9.31 nM in [10]. Besides, the IC50 at Ephrin type-A receptor 2 was determined as 163 nM.

On to `Cc1ccc(C(=O)Nc2cccc(C(F)(F)F)c2)cc1Nc1nc(-c2cccnc2)nc2c1cnn2C`, for which the ED50 amounted to 60.3 nM in test [11]; 14700 nM in [12]; 1180 nM in test [13]; 12.4 nM in test [14]; 1760 nM at Cullin-4B (Homo sapiens); 4370 nM in test [15]. In addition, the ED50 in the test listed under Homo sapiens was found to be 723 nM; in [16], 91400 nM; in test [17], 55200 nM; in [18], 4.51 nM; in test [19], 10300 nM; in [20] it was 6950 nM. Further, the ED50 in [21] is 2390 nM; in test [22], 25600 nM; in test [23], 657 nM; in test [24], 39400 nM; in test [25] it was 5720 nM; in test [26], 6.25 nM. Also, the ED50 in [27] worked out at 19.8 nM; in test [28], 1.57 nM; in test [29] it was 10400 nM; in [30] it was 4330 nM; in [31] it was 5150 nM; in test [32] it was 175 nM. Moreover, the ED50 amounted to 9.39 nM in test [33]; 98.6 nM in test [34]; 44000 nM on Tektin-1 (Homo sapiens); 92 nM at Macoilin (Homo sapiens); 34.8 nM in [35]; 1130 nM in test [36]. Moreover, the ED50 is 2.29 nM in test [37], 42800 nM in [38] and 16.7 nM in test [39].
